Drawing on PubChem BioAssay (NCI), this text covers TGI and GI50 for nine compounds.

What all share (assay): NCI tumour cell line growth inhibition, 48 h
The test system of assay [1] is CAKI-1 renal.
In assay [2] the test system is MALME-3M melanoma.
Assay [3] deals with HOP-92 NSCLC.
For assay [4], the system named is 786-0 renal.
Assay [5] deals with HCC-2998 colon.
Assay [6] deals with OVCAR-8 ovarian.
For assay [7], the system named is NCI-H522 lung.
For assay [8], the system named is TK-10 renal.
The test system of assay [9] is NCI-H23 lung.
Assay [10] relates to MOLT-4 leukemia.

Where “and” joins values, the source holds several entries; their conditions need not be identical. Equal entries are not always repeated.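 96-well plates; 48 h exposure; 5 concentrations. Endpoints by linear interpolation between flanking doses. Not reached: highest tested concentration assigned. Abbreviation: GI50, concentration required for 50% inhibition of growth. TGI denotes the concentration required for complete inhibition of growth.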

With `COC(=O)C1C(C(=O)OC)C2(OC)c3ccccc3-c3ccccc3C12` (stereo unspecified), the TGI in [1], in [2], in assay [3], in assay [4], in assay [5] and in [6] was greater than 100 µM throughout. The TGI was 88.8 µM in assay [7], greater than 100 µM in assay [8], greater than 100 µM in assay [9] and 43.6 µM in assay [10].

With `CCN(CC)CC(O)CNc1ccc(NCC2CO2)c2c1C(=O)c1ccccc1C2=O` (stereo unspecified), the GI50 is 0.757 µM in assay [1]; 0.374 µM in assay [4]; 0.587 µM in assay [5]; 0.958 µM in assay [7]; 0.26 µM in assay [9]; 0.00515 µM in [10]. The TGI in [1] was found to be 2.59 µM; in assay [2], 5.44 µM; in [3] it was 6.39 µM; in assay [4], 1.15 µM; in assay [5], 2.77 µM; in assay [6], 1.32 µM. Moreover, the TGI in assay [7] was 2.41 µM; in [8], 7.15 µM; in assay [9], 5.2 µM; in assay [10] it was 0.0582 µM and 0.0292 µM.

Take `COc1ccc(NC(=O)C(=O)C(C(=O)c2ccccc2)C2OC(=O)c3ccccc32)c([N+](=O)[O-])c1` (stereo unspecified): the TGI in assay [1], in [2], in assay [3], in [4], in assay [5] and in assay [6] was greater than 100 µM each time. For the same compound, the TGI in [7], in [8], in assay [9] and in assay [10] was greater than 100 µM each time.

As to `O=C1c2ccccc2-c2c1c1ccccc1c(=O)n2CCCNCCCn1ccnc1`, the GI50 in assay [1] is 0.446 µM; in assay [2], 3.33 µM; in assay [3], 0.95 µM; in assay [4], 0.352 µM; in [5], 0.894 µM; in [6], 2.44 µM. For the same compound, the GI50 in [7] is 1.66 µM; in assay [8] it was 1.89 µM; in assay [9] it was 0.411 µM; in assay [10], 0.0267 µM. In addition, the TGI in [1] was 2.95 µM; in assay [2], 13.4 µM; in [3], 7.57 µM; in [4] it was 2.24 µM; in assay [5], 2.38 µM; in [6] it was greater than 37.3 µM. Besides, the TGI in assay [7] was found to be 9.29 µM; in [8], 9.73 µM; in [9] it was 1.53 µM; in assay [10] it was 0.358 µM.

For `O=C1Nc2ccc(C(=O)c3ccco3)cc2/C1=C/c1cc(Cl)c(O)c(Cl)c1`, the GI50 in assay [1] is 1.72 µM; in [2], 1.66 µM; in assay [3] it was 3.2 µM; in assay [4], 4.29 µM; in assay [5] it was 6.07 µM; in assay [6], 6.27 µM. The GI50 in assay [7] is 3.91 µM; in [8] it was 6.53 µM; in assay [9] it was 4.74 µM; in [10], 9.36 µM. Moreover, the TGI was greater than 20.9 µM in [1]; 11.1 µM in [2]; 14.4 µM in [3]; 11.6 µM in assay [4]; 17.7 µM in assay [5]; greater than 25 µM in assay [6]. In addition, the TGI in assay [7] is 11.9 µM; in assay [8] it was greater than 23.9 µM; in assay [9], 21.7 µM; in assay [10] it was 24.9 µM.

Turning to `CCNC(=O)CCN(C(=O)O)S(=O)(=O)c1ccc(NC(=O)c2ccccc2)cc1`, the TGI is greater than 100 µM in assay [1]; greater than 100 µM in [2]; greater than 100 µM in [3]; 28.3 µM in assay [4]; greater than 100 µM in [5]; greater than 100 µM in assay [6]. Besides, the TGI in assay [7], in assay [8], in [9] and in assay [10] was greater than 100 µM in each case.

On to `CC(C)CS(=O)(=O)/C(=C(\c1ccc(Br)cc1)S(=O)(=O)CC(C)C)c1ccc(Br)cc1`, for which the TGI in [1], in [2], in [3], in assay [4], in assay [5] and in [6] was greater than 100 µM throughout. Also, the TGI in assay [7], in assay [8], in [9] and in [10] was greater than 100 µM throughout.

Regarding `CC(=O)[O-].CC(=O)[O-].[Pt+2].c1cscn1.c1cscn1`, the GI50 was greater than 100 µM in assay [1]; greater than 100 µM in [2]; greater than 100 µM in [3]; greater than 100 µM in assay [4]; greater than 100 µM in assay [5]; 31.3 µM in assay [6]. Also, the GI50 in [7] was 20.8 µM; in assay [8], greater than 100 µM; in assay [9], greater than 100 µM; in [10] it was 36.1 µM. The TGI in [1] is greater than 100 µM; in assay [2] it was greater than 100 µM; in [3], greater than 100 µM; in assay [4] it was greater than 100 µM; in [5], greater than 100 µM; in [6], 71.7 µM. Also, the TGI in assay [7] was 42.2 µM; in assay [8], greater than 100 µM; in assay [9], greater than 100 µM; in assay [10] it was greater than 100 µM.

Consider `CCCCCCCCC[C@@H]1CC(=O)OCC2OC(O[C@H](CCCCCCCCC)CC(=O)OCC3OC(O[C@H](CCCCCCCCC)CC(=O)OCC4OC(O1)C(O)C(O)C4O)C(O)C(O)C3O)C(O)C(O)C2O` (stereo partly specified), for which the TGI in assay [1] came out at 14.9 µM; in [2], 22.3 µM; in [3], 22.6 µM; in assay [4], 16.2 µM; in assay [5], 24.7 µM; in assay [6] it was 28.7 µM. Also, the TGI in assay [7] worked out at 23.5 µM; in assay [8], 23.1 µM; in [9] it was 30.6 µM; in assay [10], 20.6 µM.
